Reference: patent US20210347823A1, “METHODS OF PHYSICOCHEMICAL-GUIDED PEPTIDE DESIGN AND NOVEL PEPTIDES DERIVED THEREFROM” (Massachusetts Institute of Technology, priority 2018, published 2021)

Tests used:
human red blood cells = assay: Hemolytic activity assay; assay type: cell-based; conditions: for HC50: concentration needed for 50% hemolysis, human RBC in PBS, room temperature, 1 h, 0.1-100 μmol L^−1; for hemolytic activity: range of concentrations evaluated 0-100 μmol L^−1
Experimental: FIGS. 6A-6B. Hemolysis and resistance to protease-mediated degradation of engineered peptides. FIG. 6A. Schematic of experimental design and hemolytic assay results of Pol-CP—NH2 and derivatives, where hemolytic activity was evaluated by incubating the peptides (0.1-100 μmol L^−1) with human red blood cells in PBS at room temperature for 1 h. Experiments were performed in triplicate, (*p<0.05). FIG. 6B. Resistance to degradation of Pol-CP—NH2 and analogs exposed to fetal bovine serum (FBS) proteases for 6 h. Experiments were done in triplicate.
Hemolytic Activity Assays. Human erythrocytes were collected and washed three times by centrifugation at 300×g with PBS (pH 7.4). After the last centrifugation, the cells were resuspended in PBS pH 7.4. Aliquots at a concentration of 0.1 to 100 ? mol L^−1 of the peptides were added to the 96-well microplate, where in each well containing 50 ? L of a suspension of erythrocytes to 0.4% in a phosphate saline buffer (10 mmol L^−1 Na2HPO4, 1.8 mmol L^−1 […], pH 7.4, 137 mmol L^−1 NaCl and 2.7 mmol L^−1KCl). After that, the samples were incubated at room temperature for 1 h. Hemolysis was determined by reading absorbance at 405 nm of each well in a bed of plates. 1% SDS in PBS solution was used as positive control (Shalel S. et al., J. Colloid Interface Sci. 252, 66-76 (2002); Love L. J. Cell. Comp. Physiol. 36, 133-148 (1950)) and as negative control was used PBS only. MHC was defined as the maximal non-hemolytic concentration.

[1] = Mouse body weight / toxicity in the skin infection model; assay type: in vivo, mice; conditions: for mouse body weight: peptides used at 64 mol L^−1 (so in the source), compared to untreated mice
Experimental: FIGS. 8A-8D. In vivo activity of Pol-CP—NH2 and its analogs. FIG. 8A. Schematic of the experimental design. Briefly, the back of mice was shaved and an abrasion was generated to damage the stratum corneum and the upper layer of the epidermis. Subsequently, an aliquot of 50 μL containing 5×10^7 CFU of P. aeruginosa in PBS was inoculated over each defined area. One day after the infection, peptides (4 μmol L^−1) were administered to the infected area. Animals were euthanized and the area of scarified skin was excised two and four days post-infection (FIG. 8B) homogenized using a bead beater for 20 minutes (25 Hz), and serially diluted for CFU quantification (****p<0.0001). FIG. 8C. Mouse body weight measurements throughout the experiment normalized by the body weight of non-infected mice. […] FIG. 8D. Longer experiment (four days) using a higher concentration (64 μmol L^−1) of peptides Pol-CP—NH2 and [Lys]'-Pol-CP—NH2 (****p<0.0001).
Scarification Skin Infection Mouse Model. P. aeruginosa strain PA14 was grown to an optical density at 600 nm (OD600) of 1 in tryptic soy broth (TSB) medium. Subsequently cells were washed twice with sterile PBS (pH 7.4, 13,000 rpm for 1 minute), and resuspended to a final concentration of 5×10^7 CFU/50 ? L. To generate skin infection, female CD-1 mice (6 weeks old) were anesthetized with isoflurane and had their backs shaved. A superficial linear skin abrasion was made with a needle in order to damage the stratum corneum and upper-layer of the epidermis. Five minutes after wounding, an aliquot of 50 ? L containing 5×10^7 CFU of bacteria in PBS was inoculated over each defined area containing the scratch with a pipette tip. One day after the infection, peptides were administered to the infected area. Animals were euthanized and the area of scarified skin was excised two and four days post-infection, homogenized using a bead beater for 20 minutes (25 Hz), and serially diluted for CFU quantification. Two independent experiments were performed with 4 mice per group in each condition. Statistical significance was assessed using a one-way ANOVA.

[2] = system: HEK293 human embryonic kidney cells; assay: Cytotoxicity assay (MTS); assay type: cell-based; conditions: for toxicity at 64 μmol L^−1: assay not stated; for Cytotoxicity: HEK293, 48 h, MTS, peptides 0-64 μmol L^−1
Experimental: FIGS. 7A-7B. Cytotoxicity of engineered peptides. FIG. 7A. Schematic of the experimental design for cytotoxicity assays of Pol-CP—NH2 and derivatives against HEK293 human embryonic kidney cells. Briefly, cells were cultured in DMEM medium supplemented with FBS and antibiotics at 37° C. and 5% CO2. FIG. 7B. Results obtained by seeding HEK293 50,000 cells and incubating with peptides' solution (0-64 μmol L^−1) at 37° C. for 48 h. Cell viability was measured by MTS assay. All experiments were performed in triplicate.
Cytotoxicity assays. Human embryonic kidney 293 (HEK 293) cells were cultured in Dulbecco's Modified Eagle Medium (DMEM) supplemented with 10% Fetal Bovine Serum (FBS) and 1% penicillin-streptomycin at 37° C. in 5% CO2. The day before treatment, 50,000 HEK 293 cells were seeded into each well in 96-well plates. The peptides were added at concentrations ranging from 0 to 64 ? mol L^−1 and 48 h after exposure, cell viability was measured by means of MTS (dimethylthiazol-carboxymethoxyphenyl-sulfophenyl-tetrazolium) assay. Experiments were performed in triplicate for each condition.

With “H-ILGTILGLLKSL-NH2 [WT, ILGTILGLLKSL-NH2, reference compound]” the HC50 (human red blood cells) was 50.0 µmol/L, the “hemolytic activity” value (human red blood cells) was “hemolytic” and the mouse body weight [1] was “did not change significantly”. For the same substance, the “toxicity at 64 μmol L^−1” value [2] was “toxic”, the Cytotoxicity [2] was 32.0 µmol/L and the Cytotoxicity ([2]; listed as wild-type peptide) was 32 µmol/L.
With “H-ILGTILKLLKSL-NH2 [Peptide 16, ILGTILKLLKSL-NH2]” the HC50 (human red blood cells) was 12.5 µmol/L, the “hemolytic activity (concentration at which hemolytic)” value (human red blood cells; human red blood cells, range evaluated 0-100 μmol L^−1) was 12.5 µmol/L and the “hemolytic activity” value (human red blood cells) was “hemolytic”. For the same substance, the mouse body weight [1] was “did not change significantly”, the “toxicity to mice” value ([1]; single dose) was “non-toxic” and the “toxicity at 64 μmol L^−1” value [2] was “toxic”. The Cytotoxicity [2] was 16.0 µmol/L, the Cytotoxicity ([2]; listed as [Lys]^7-Pol-CP—NH2) was 16 µmol/L and the “cytotoxic concentration relative to MIC against P. aeruginosa” value ([2]; HEK293 cytotoxicity vs MIC) was “two- to four-fold higher”.
